In US10800788B2, “4-(aryl)-N-(3-alkoxyfuro[2,3-b]pyrazin-2-yl)-piperazine-1-carboxamide derivative and antiproliferative effect thereof” (Dongguk University Industry-Academic Cooperation Foundation, priority 2016, dated 2020):

Experiments:
[1] = tested on: MDA-MB-231 (breast cancer) cell line; assay: Cell growth inhibition experiment (SRB), MDA-MB-231; assay type: cell-based, human; details: Homo sapiens, MDA-MB-231, 96 h, 96 hours incubation
Protocol: (§1) The cell lines below were used in order to confirm the efficacy of the compounds synthesized in Examples 1 to 60. Human PANC-1 (pancreatic cancer) and MDA-MB-231 (breast cancer) cell lines were obtained from the American Type Culture Collection (ATCC; Manassas, Va.); and HN31 (head and neck cancer) and UMRC2 (kidney cancer) cell lines were secured from the United States National Institutes of Health (Bethesda, Md.). The MDA-MB-231, UMRC2, HN31, and PANC-1 cell lines were cultured in Dulbecco modified Eagle medium (DMEM; Invitrogen, Carlsbad, Calif.) containing FBS (10%), HEPES (10 mM), penicillin (100 U/mL), and streptomycin (100 μg/mL). All cell lines were cultured in an incubator (37° C., 5% CO2).
(§2) The 4-(aryl)-N-(3-alkoxyfuro[2,3-b]pyrazin-2-yl)-piperazine-1-carboxamide derivative compounds synthesized according to Examples 1 to 60 of the present invention were treated with various human tissue-derived cancer cell lines cultured according to Experimental Example 1, and thus the inhibitory effect of the growth of human cancer cells was confirmed. The cell growth inhibition experiment was conducted using the sulforhodamine B (SRB) technique (Skehan et al., J. National Cancer Institute, 1990, 82: 1107-1112). Specifically, each cell line was seeded in a 96-well plate at a density of 2 to 3×10^3 cells/well, cultured overnight, and then treated with the 4-(aryl)-N-(3-alkoxyfuro[2,3-b]pyrazin-2-yl)-piperazine-1-carboxamide derivative compounds of the present invention. The experiment was repeated 3 times for each compound. Cells treated with each compound were additionally incubated for 96 hours, fixed with 10% trichloroacetic acid (TCA), and then left at 4° C. for 1 hour. The resultant was washed 3 times with distilled water. Thereafter, each cell was treated with 0.4% sulforhodamine B dissolved in 1% acetic acid, stained for 30 minutes, and then washed 4 times with 1% acetic acid. The resultant was dried in the air. After shaking the resultant in Tris solution (10 mM) for 5 minutes, the absorbance was measured at 530 nm using a Benchmark Plus Microplate reader (Bio-Rad Laboratories, Hercules, Calif.).
(§3) In order to convert the OD530 value to the number of viable cells per each well, the measured OD530 value was compared to the standard OD530-vs.-cell number curve of each cell line. The percent survival was calculated using the following formula: % survival=Nlive cells(test)/Nlive cells(control)×100

[2] = tested on: UMRC2 (kidney cancer) cell line; assay: Cell growth inhibition experiment (SRB), UMRC2; assay type: cell-based, human; details: Homo sapiens, UMRC2, 96 h, 96 hours incubation
Protocol: as §1, §2, §3

[3] = tested on: PANC-1 (pancreatic cancer) cell line; assay: Cell growth inhibition experiment (SRB), PANC-1; assay type: cell-based; details: Homo sapiens, PANC-1, 96 h, 96 hours incubation
Protocol: as §1, §2, §3

[4] = tested on: HN31 (head and neck cancer) cell line; assay: Cell growth inhibition experiment (SRB), HN31; assay type: cell-based, human; details: Homo sapiens, 96 h, 96 hours incubation
Protocol: as §1, §2, §3

A549 = assay: Cell growth inhibition experiment (SRB), A549; assay type: cell-based; details: Homo sapiens, A549, 96 h, 96 hours incubation, read-out: IC50 (μM) for cancer cell line A549
Protocol: as §2, §3

HEK293 = assay: Cell growth inhibition experiment (SRB), HEK293; assay type: cell-based, human; details: Homo sapiens, HEK293, 96 h, 96 hours incubation, read-out: IC50 (μM) for cancer cell line HEK293
Protocol: as §2, §3

HUVEC = assay: Cell growth inhibition experiment (SRB), HUVEC; assay type: cell-based, human; details: Homo sapiens, HUVEC, 96 h, 96 hours incubation, read-out: IC50 (μM) […]
Protocol: as §2, §3

HT29 = assay: Cell growth inhibition experiment (SRB), HT29; assay type: cell-based, human; details: Homo sapiens, HT-29, 96 h, 96 hours incubation, read-out: IC50 (μM) for cancer cell line HT29
Protocol: as §2, §3

SK-OV-3 = assay: Cell growth inhibition experiment (SRB), SK-OV-3; assay type: cell-based, human; details: Homo sapiens, SK-OV-3, 96 h, 96 hours incubation, read-out: IC50 (μM) for cancer cell line SK-OV-3
Protocol: as §2, §3

| IC50 [1] [µM] | IC50 [2] [µM] | IC50 [3] [µM] | IC50 [4] [µM] | IC50 (A549) [µM] | IC50 (HT29) [µM] | IC50 (SK-OV-3) [µM] | SMILES | IC50 (HEK293) [µM] | IC50 (HUVEC) [µM] |
| --- | --- | --- | --- | --- | --- | --- | --- | --- | --- |
| 0.15 | 0.21 | 0.24 | 0.31 | 0.41 | < 2.5 | < 2.5 | CCOc1nc2oc(C)cc2nc1NC(=O)N1CCN(c2cc(F)cc(OC)c2)CC1 [Example 33, N-(3-Ethoxy-6-methylfuro[2,3-b]pyrazin-2-yl)-4-(3-fluoro-5-methoxyphenyl)piperazine-1-carboxamide] | 0.51 | < 2.5 |
| 0.36 | 1.21 | 0.44 | 1.02 | 0.68 | < 2.5 | < 2.5 | CCOc1nc2oc(C)cc2nc1NC(=O)N1CCN(c2cc(OC)cc(OCCN(C)C)c2)CC1 [Example 34, 4-(3-(2-(Dimethylamino)ethoxy)-5-methoxyphenyl)-N-(3-ethoxy-6-methylfuro[2,3-b]pyrazin-2-yl)piperazine-1-carboxamide] | 0.44 | < 2.5 |
| 0.24 | 0.54 | 0.43 | 0.44 | 1.02 | < 2.5 | < 2.5 | CCOc1nc2oc(C)cc2nc1NC(=O)N1CCN(c2cc(C)cc(C)c2)CC1 [Example 35, 4-(3,5-Dimethylphenyl)-N-(3-ethoxy-6-methylfuro[2,3-b]pyrazin-2-yl)piperazine-1-carboxamide] | 1.12 | < 2.5 |
| 0.45 | 0.36 | 0.12 | 0.36 | 1.32 | 1.12 | 1.12 | CCOc1nc2oc(C)cc2nc1NC(=O)N1CCN(c2cc(C)cc(F)c2)CC1 [Example 36, N-(3-Ethoxy-6-methylfuro[2,3-b]pyrazin-2-yl)-4-(3-fluoro-5-methylphenyl)piperazine-1-carboxamide] | 1.32 | 1.12 |
| 0.15 | 0.36 | 0.51 | 0.68 | 0.44 | 1.28 | 2.13 | CCOc1nc2oc(C)cc2nc1NC(=O)N1CCN(c2cc(F)cc(F)c2)CC1 [Example 37, 4-(3,5-Difluorophenyl)-N-(3-ethoxy-6-methylfuro[2,3-b]pyrazin-2-yl)piperazine-1-carboxamide] | 1.63 | 1.25 |
| < 2.5 | < 2.5 | < 2.5 | < 2.5 | < 2.5 | < 2.5 | < 2.5 | CCOc1nc2oc(C)cc2nc1NC(=O)N1CCN(c2cc(F)cc(C(F)(F)F)c2)CC1 [Example 38, N-(3-Ethoxy-6-methylfuro[2,3-b]pyrazin-2-yl)-4-(3-fluoro-5-(trifluoromethyl)phenyl)piperazine-1-carboxamide] | < 2.5 | < 2.5 |
| < 2.5 | < 2.5 | < 2.5 | < 2.5 | < 2.5 | < 2.5 | < 2.5 | CCOc1nc2oc(C)cc2nc1NC(=O)N1CCN(c2cc(C(F)(F)F)cc(C(F)(F)F)c2)CC1 [Example 39, 4-(3,5-Bis(trifluoromethyl)phenyl)-N-(3-ethoxy-6-methylfuro[2,3-b]pyrazin-2-yl)piperazine-1-carboxamide] | < 2.5 | < 2.5 |
| < 2.5 | < 2.5 | < 2.5 | < 2.5 | < 2.5 | < 2.5 | < 2.5 | CCOc1nc2oc(C)cc2nc1NC(=O)N1CCN(c2cccc(OC(F)(F)F)c2)CC1 [Example 40, N-(3-Ethoxy-6-methylfuro[2,3-b]pyrazin-2-yl)-4-(3-(trifluoromethoxy)phenyl)piperazine-1-carboxamide] | < 2.5 | < 2.5 |
| 0.51 | 0.32 | 0.36 | 0.68 | 1.87 | 1.87 | < 2.5 | COc1cc(OC)cc(N2CCN(C(=O)Nc3nc4cc(Cl)oc4nc3OC)CC2)c1 [Example 41, N-(6-Chloro-3-methoxyfuro[2,3-b]pyrazin-2-yl)-4-(3,5-dimethoxyphenyl)piperazine-1-carboxamide] | 1.66 | 1.73 |
| 0.36 | 1.68 | 1.23 | 1.68 | 1.87 | 1.87 | < 2.5 | COc1cc(C)cc(N2CCN(C(=O)Nc3nc4cc(Cl)oc4nc3OC)CC2)c1 [Example 42, N-(6-Chloro-3-methoxyfuro[2,3-b]pyrazin-2-yl)-4-(3-methoxy-5-methylphenyl)piperazine-1-carboxamide] | 1.37 | 1.47 |
| 0.43 | 0.38 | 0.61 | 0.53 | 0.36 | 0.87 | < 2.5 | COc1cc(OCCN(C)C)cc(N2CCN(C(=O)Nc3nc4cc(Cl)oc4nc3OC)CC2)c1 [Example 44, N-(6-Chloro-3-methoxyfuro[2,3-b]pyrazin-2-yl)-4-(3-(2-(dimethylamino)ethoxy)-5-methoxyphenyl)piperazine-1-carboxamide] | 0.71 | 0.66 |
| 0.69 | 0.32 | 0.68 | 1.68 | 1.81 | < 2.5 | < 2.5 | COc1nc2oc(Cl)cc2nc1NC(=O)N1CCN(c2cc(C)cc(C)c2)CC1 [Example 45, N-(6-Chloro-3-methoxyfuro[2,3-b]pyrazin-2-yl)-4-(3,5-dimethylphenyl)piperazine-1-carboxamide] | 2.01 | < 2.5 |
| 1.68 | 1.35 | 1.94 | 1.83 | < 2.5 | < 2.5 | < 2.5 | COc1nc2oc(Cl)cc2nc1NC(=O)N1CCN(c2cc(C)cc(F)c2)CC1 [Example 46, N-(6-Chloro-3-methoxyfuro[2,3-b]pyrazin-2-yl)-4-(3-fluoro-5-methylphenyl)piperazine-1-carboxamide] | < 2.5 | < 2.5 |
| 0.43 | 0.68 | 0.41 | 0.68 | 0.57 | 1.92 | 1.93 | COc1nc2oc(Cl)cc2nc1NC(=O)N1CCN(c2cc(F)cc(F)c2)CC1 [Example 47, N-(6-Chloro-3-methoxyfuro[2,3-b]pyrazin-2-yl)-4-(3,5-difluorophenyl)piperazine-1-carboxamide] | 0.63 | 1.87 |
| 0.32 | 1.03 | 1.68 | 1.17 | < 2.5 | < 2.5 | < 2.5 | COc1nc2oc(Cl)cc2nc1NC(=O)N1CCN(c2cc(C(F)(F)F)cc(C(F)(F)F)c2)CC1 [Example 49, 4-(3,5-Bis(trifluoromethyl)phenyl)-N-(6-chloro-3-methoxy-furo[2,3-b]pyrazin-2-yl)piperazine-1-carboxamide] | < 2.5 | < 2.5 |
| < 2.5 | < 2.5 | < 2.5 | < 2.5 | < 2.5 | < 2.5 | < 2.5 | COc1nc2oc(Cl)cc2nc1NC(=O)N1CCN(c2cccc(OC(F)(F)F)c2)CC1 [Example 50, N-(6-Chloro-3-methoxy-furo[2,3-b]pyrazin-2-yl)-4-(3-(trifluoromethoxy)phenyl)piperazine-1-carboxamide] | < 2.5 | < 2.5 |
